Results on nine molecules are retold here after PMC7311461, “Cyclophilin D binds to the acidic C-terminus region of α-Synuclein and affects its aggregation characteristics” (Scientific Reports, 2020).

“Also recorded” adds a separate entry of the source.

In series [1] the test system is αSyn. Particulars: cited from earlier work. The text has this: (§1) Proteins currently known to dissociate amyloid fibrils do so in either an ATP-dependent or –independent manner. Examples of the former include Hsp70, whereas the latter mode can be found in Cyclophilin 40 (Cyp40)[14],[15]. […] The effects of Cyp40 on the tau and αSyn fibrils were attributed to its peptidyl-prolyl isomerase activity. […] An emerging picture is that agents that prevent aggregation can also dissemble amyloid fibrils. […] Human Cyp40 is a multidomain protein consisting of the catalytic isomerase domain followed by four tetratricopeptide repeats. Through mutagenesis, the isomerase domain was identified as being responsible for this disaggregating activity[15] as is also shown here for CypD. CypD also interacts directly with the Alz ...

Series [2] concerns αSyn. The following applies: cited from earlier work. The text has this: While the aggregation processes are well studied the same is not true for disaggregation. […] EGCG binding to the C-terminus stabilises the αSyn monomeric state and shifts the monomer-fibril equilibrium towards the less aggregated forms. […] Human Cyp40 is a multidomain protein consisting of the catalytic isomerase domain followed by four tetratricopeptide repeats. Through mutagenesis, the isomerase domain was identified as being responsible for this disaggregating activity[15] as is also shown here for CypD. CypD also interacts directly with the Alz ...
The source holds these as a separate data set.

Series [3] has as its system amyloid-β (Aβ). Particulars: cited from earlier work.
Text: as §1

Series [4] relates to tau. The following applies: cited from earlier work. From the text:
Proteins currently known to dissociate amyloid fibrils do so in either an ATP-dependent or –independent manner. Examples of the former include Hsp70, whereas the latter mode can be found in Cyclophilin 40 (Cyp40)[14],[15]. […] The effects of Cyp40 on the tau and αSyn fibrils were attributed to its peptidyl-prolyl isomerase activity.

The test system of series [5] is human insulin and human lysozyme. The following applies: cited from earlier work. From the text:
An emerging picture is that agents that prevent aggregation can also dissemble amyloid fibrils.

Series [6] addresses T1, CypD (Homo sapiens, UniProt P30405).
T1 construct: His tag (TEV-cleavable, pETM11 vector) (cleaved yes); made in house; host or cells: E. coli BL21 (DE3)
The series is described as follows: Isothermal titration calorimetry, binding to CypD wild-type. The following applies: 10°C, 20 mM phosphate, 20 mM NaCl, pH 6.5. (In general: In ITC the heat of successive injections is recorded.)
Method: All ITC experiments were carried out at 10°C on an ITC200 Microcalorimeter (GE Healthcare). The buffer used was 20 mM phosphate, 20 mM NaCl at pH 6.5. Each experiment consisted of an initial injection of 0.5 µL, followed by fifteen 2.39 µL injections before a final injection of 1.89 µL. Control experiments were performed whereby each compound was titrated into buffer and buffer titrated into CypD. In both cases no heat exchange was detected, confirming that there was appropriate match of buffer conditions with no indication of dilution effects. The titration experiments were performed in duplicates, with 50-100 µM CypD in the cell and 500-2000 µM peptides in the syringe. For some of the titrations, data from two runs were concatenated to achieve a saturating isotherm. All data was analysed using the Origin®7 (OriginLab, Northampton, MA) software programme.

Series [7] has as its target T1, CypD. Description: 1H-15N HSQC NMR of 15N-CypD, binding site identification. Particulars: 15N-CypD HSQC, 20-fold excess peptide; 20 mM phosphate, 20 mM NaCl, pH 6.5.
Method: NMR spectra were acquired on Bruker Avance III 800 MHz spectrometer equipped with [^1H, ^15N, ^13C]-cryoprobes. […] The same buffer was used for obtaining the ^1H-^15N spectra of ^15N-labelled αSyn at 298 K. Experiments using ^15N-labelled αSyn fibrils were performed at 288 K. ^2H/^15N-labelled CypD was used to make the complex with intact αSyn in order to achieve the optimal conditions to observe shift perturbations, taking into account the size of the complex (~32kD). Backbone ^1H and ^15N resonances of CypD and αSyn were assigned using standard triple resonance to those assigned by ^13C, ^15N, ^1H-triple resonance HNCA, HN(CO)CA, HNCO, HN(CA)CO, CBCA(CO)NH, and CBCANH experiments.
In the analyses of the chemical shift perturbation, the chemical-shift difference was expressed as: Δδ = {(ΔH)^2 + (0.15ΔN)^2}^1/2. Values of Δδ greater than 0.07 were considered significant.
The target in series [8] is T1, CypD. The series is described as follows: Isomerisation substrate test by NMR. In kind it is biochemical.
Method: (§2) NMR spectra were acquired on Bruker Avance III 800 MHz spectrometer equipped with [^1H, ^15N, ^13C]-cryoprobes. 1D and 2D spectra of αSyn peptide were performed using 1 mM peptide dissolved in 20 mM phosphate, 20 mM NaCl pH 6.5 at 298 K or 283 K. Resonance assignments of the proton spectra of αSyn peptide were obtained using ^1H-^1H 2D TOCSY (mixing time 60 ms) and NOESY spectra (mixing time 350 ms). […] The same buffer was used for obtaining the ^1H-^15N spectra of ^15N-labelled αSyn at 298 K. Experiments using ^15N-labelled αSyn fibrils were performed at 288 K. ^2H/^15N-labelled CypD was used to make the complex with intact αSyn in order to achieve the optimal conditions to observe shift perturbations, taking into account the size of the complex (~32kD). Backbone ^1H and ^15N resonances of CypD and αSyn were assigned using standard triple resonance to those assigned by ^13C, ^15N, ^1H-triple resonance HNCA, HN(CO)CA, HNCO, HN(CA)CO, CBCA(CO)NH, and CBCANH experiments.
Series [9] concerns αSynC peptide (cis-trans isomerisation by CypD). Description: NMR detection of αSynC cis-trans isomerisation (1D line-broadening, 2D NOESY exchange cross-peaks). Format: biochemical. Particulars: αSynC 1 mM, CypD 50uM, CsA 100uM, 283 K.
Method: as §2
For series [10], the system named is αSyn effects on mitochondria / MPTP. The following applies: cited from earlier work. The text has this:
Cyclophilin D (CypD) is a mitochondrial peptidyl-prolyl isomerase that has been implicated to be involved in the mechanisms of many diseases, although it is best known as a regulator for the opening of the mitochondria permeability transition pore (MPTP). […] Co-immunoprecipitation experiments ...

T1 sequence (P30405 43-207): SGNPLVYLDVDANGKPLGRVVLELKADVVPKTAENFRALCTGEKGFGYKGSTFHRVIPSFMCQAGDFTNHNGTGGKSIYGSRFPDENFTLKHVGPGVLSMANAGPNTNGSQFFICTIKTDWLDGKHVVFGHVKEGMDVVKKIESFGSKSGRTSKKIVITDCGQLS

In the case of epigallocatechin-3-gallate [EGCG], the “dissociation of αSyn aggregates” value in series [1] is listed as “dissociates αSyn aggregates”. In [2], the “binding to C-terminus of monomeric αSyn” value is listed as “binds to the C-terminus of monomeric αSyn”.
In the case of “Cyp40: cytosolic peptidyl prolyl isomerase, co-chaperone to Hsp90”, the dissociation of fibrils result in series [3] (Aβ fibrils) was “not amyloid-β (Aβ) fibrils”; in [1] (αSyn fibrils), “dissociate tau, and αSyn”; in series [4], “dissociate tau”.
As for Cyclophilin A: Cyclophilin A, the “binding to αSyn” value in series [2] is listed as “bind to αSyn, also at the C-terminus as well as to the preNAC sequence”.
Regarding “FKBP12: peptidyl-prolyl isomerase immunophilin protein belonging to the FKBP family, cytoplasmic”, in series [1], the αSyn aggregation result is “promoted αSyn aggregation”. Besides, the “binding to αSyn” value in series [2] is listed as “shown to bind αSyn”.
Consider `CC12CC3CC(C)(C1)CC(N)(C3)C2` [memantine], for which, in series [3], the “Aβ aggregation and preformed Aβ fibrils” value is recorded as “inhibits Αβ aggregation; also recorded: disassembles preformed Aβ fibrils”.
Consider `C=CC[C@@H]1/C=C(\C)C[C@H](C)C[C@H](OC)[C@H]2O[C@@](O)(C(=O)C(=O)N3CCCC[C@H]3C(=O)O[C@H](/C(C)=C/[C@@H]3CC[C@@H](O)[C@H](OC)C3)[C@H](C)[C@@H](O)CC1=O)[C@H](C)C[C@@H]2OC` [FK506], for which the “αSyn aggregation (FKBP inhibitor)” value in [1] was “prevent αSyn aggregation”.
For `CC(CN1c2ccccc2Sc2ccccc21)N(C)C` (centres unmarked) [promethazine], in [5], the “aggregation of human insulin and human lysozyme” value was “prevents the aggregation of human insulin and human lysozyme; also recorded: depolymerises preformed fibrils”.
For “GVATVAEKTKEQVTN [αSynM, synthetic peptide 51–65 of αSyn, >98% pure]”, the “binding to CypD (ITC, in words)” value in [6] is “too weak to yield a reliable binding isotherm; also recorded: binds much more weakly”. The “binding to CypD by NMR (in words)” value in series [7] is listed as “only slightly shifted from the positions in the free protein with minimal broadening observed for selected peaks; also recorded: very weak binding”. In [8], the “interaction with CypD / isomerisation substrate” value is listed as “not an isomerisation substrate of CypD”.
Turning to cyclosporine A [CsA], the “effect of CsA on exchange cross-peaks (CypD isomerase activity)” value is “exchange crosspeaks disappear” in series [9] and “disappearance of the exchange cross-peaks” in series [9] (listed as Cyclosporine A). In addition, the “rescue of αSyn effects on mitochondria” value in series [10] is “can be rescued”.
